Measurements as given in patent publication US10517862B2, “Fused heterocyclic compound derivative and application thereof” (NHWA PHARMA. CORPORATION, priority 2015, dated 2019).

Tests used:
[1] = test system: D2 receptor; test: D2 receptor binding assay (3H-Spiperone, rat striatum membrane); settings: for D2 Inhibition rate (%): test compound final concentration 10^−5 M, 3H-Spiperone, rat striatum membrane
Description: Preparation of D2 Membrane
Rats were decapitated on ice. […] The weight of the homogenized tubes were adjusted using a balance, and centrifugation was conducted. […] Centrifugation was conducted.
(§1) Materials for the Receptor Binding Assay

[2] = target: T1, 5HT1A receptor (Rattus norvegicus, UniProt P19327); test: 5HT1A receptor binding assay (3H-8-OH-DPAT, rat striatum membrane); settings: for inhibition at 10 µM: test compound final concentration 10^−5 M, 3H-8-OH-DPAT, rat striatum membrane, read-out: 5HT1A Inhibition rate (%)
T1 construct: Rats were decapitated on ice; from tissue; host or cells: rat brain striatum
T1 sequence (P19327 1-422): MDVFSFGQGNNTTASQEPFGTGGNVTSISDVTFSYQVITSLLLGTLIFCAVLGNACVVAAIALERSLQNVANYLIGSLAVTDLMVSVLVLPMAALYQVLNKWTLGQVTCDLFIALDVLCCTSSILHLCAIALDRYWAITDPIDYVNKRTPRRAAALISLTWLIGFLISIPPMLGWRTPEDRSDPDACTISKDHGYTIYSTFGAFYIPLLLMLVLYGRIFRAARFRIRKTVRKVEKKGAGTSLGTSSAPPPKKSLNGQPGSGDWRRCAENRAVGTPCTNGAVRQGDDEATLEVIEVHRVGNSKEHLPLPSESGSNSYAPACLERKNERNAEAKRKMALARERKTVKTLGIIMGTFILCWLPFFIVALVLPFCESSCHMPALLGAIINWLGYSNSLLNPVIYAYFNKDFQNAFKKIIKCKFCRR
Description: Preparation of 5HT1A Membrane
Rats were decapitated on ice. […] Incubation at 37° C. was conducted for 10 min. […] Centrifugation was conducted at 12000 rpm, 4° C. for 20 min. […] Centrifugation was conducted and repeated 3 times.
as §1

[3] = target: T2, D3 receptor (Homo sapiens, UniProt P35462); test: D3 receptor assay ([3H]-Spiperone, HEK-293 cells); type: binding; settings: for inhibition at 10 µM: test compound final concentration 10 μmol/L, [3H]-Spiperone, HEK-293 cells, read-out: D3 Inhibition rate (%)
T2 construct: expressed in transfected cells; host or cells: HEK-293
T2 sequence (P35462 whole entry): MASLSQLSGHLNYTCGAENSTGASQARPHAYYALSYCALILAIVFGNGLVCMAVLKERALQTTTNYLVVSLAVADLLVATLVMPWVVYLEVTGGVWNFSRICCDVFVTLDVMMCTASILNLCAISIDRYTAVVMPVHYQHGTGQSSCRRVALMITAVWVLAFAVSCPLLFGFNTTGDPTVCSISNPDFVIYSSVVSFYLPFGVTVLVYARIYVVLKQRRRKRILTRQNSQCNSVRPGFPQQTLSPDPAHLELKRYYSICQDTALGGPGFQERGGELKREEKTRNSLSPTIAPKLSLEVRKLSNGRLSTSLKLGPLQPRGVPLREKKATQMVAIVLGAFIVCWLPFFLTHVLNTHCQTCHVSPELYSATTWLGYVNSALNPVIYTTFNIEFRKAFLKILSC
Description: Then the cells were centrifuged at 1000 rpm for 5 min, the supernatant was discarded, and the cell pellets was collected and stored in a −20° C. fridge for reservation. It was re-suspended with Tris-Cl (pH 7.4) when the assay was performed.
Tris was divided into aliquots by Genetimes Technology Inc.
Competitive binding test for receptors: 20 μl of each of the test compounds and 20 μl of the radioactive ligand together with 160 μl of the receptor proteins were added into the reaction tubes, and the final concentrations of the test compound and the positive drug were all 10 μmol/L. After 50 min of incubation in 30° C. water bath, the tubes were immediately moved to ice bath to terminate the reactions. GF/C glass fiber filter papers were used for rapid sucking filtration on a Millipore cell sample collector, 3 ml of elution buffer (50 mM Tris-HCl, PH 7.4) was applied for 3 times, and microwave was applied for 4-5 min for drying. The filter paper was moved into 0.5 ml centrifuge tube, and 500 μl of liposoluble scintillation cocktail was added. The tubes were allowed to stand still for over 30 min in dark, and the intensities of radioactivity were measured by a counter.

[4] = target: T3, 5HT2C receptor (Rattus norvegicus, UniProt P08909); test: 5HT2C receptor binding assay ([3H]-mesulergine, rat striatum membrane); settings: for inhibition at 10 µM: test compound final concentration 10^−5 M, [3H]-mesulergine, rat striatum membrane, read-out: 5HT2C Inhibition rate (%)
T3 construct: from tissue; host or cells: rat brain striatum
T3 sequence (P08909 33-460): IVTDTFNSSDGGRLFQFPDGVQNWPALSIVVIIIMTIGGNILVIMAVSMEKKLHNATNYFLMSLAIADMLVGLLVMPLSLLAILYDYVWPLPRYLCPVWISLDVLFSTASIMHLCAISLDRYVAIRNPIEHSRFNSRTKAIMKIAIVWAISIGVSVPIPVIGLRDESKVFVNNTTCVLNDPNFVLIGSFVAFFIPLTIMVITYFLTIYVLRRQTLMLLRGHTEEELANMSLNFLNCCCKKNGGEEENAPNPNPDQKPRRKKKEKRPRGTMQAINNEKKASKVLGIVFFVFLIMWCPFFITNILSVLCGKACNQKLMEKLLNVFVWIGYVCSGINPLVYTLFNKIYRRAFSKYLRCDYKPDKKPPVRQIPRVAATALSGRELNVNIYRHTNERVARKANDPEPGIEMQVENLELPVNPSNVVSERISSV
Description: Preparation of 5HT2C Membrane
Rats were decapitated on ice. […] Centrifugation was conducted.
as §1

[5] = test system: α1 norepinephrine receptor; test: α1 norepinephrine receptor binding assay (3H-prazosin, rat cortex membrane); settings: for α1 Inhibition rate (%): test compound final concentration 10^−5 M, 3H-prazosin, rat cortex membrane
Description: Preparation of Receptor Membrane of Norepinephrine
α1 Norepinephrine Receptor Binding Assay

[6] = test system: mice of Kunming breed; test: MK-801 induced high activity in mice; type: in vivo; settings: Mus musculus, 1.5 h, po, MK-801 0.1 mg/kg ip, spontaneous activities in 90 min
Description: Example 54: MK-801 Induced High Activity—the In Vivo Anti-Schizophrenia Activity of the Compounds
Healthy mice of Kunming breed (with half male and half female, (20±2) g) were provided by Qinglongshan Animal Cultivation Center, Nanjing.
Ascorbic acid was provided by Sinopharm Chemical Reagent Co. Ltd.
MK-801 was produced by Sigma Company, USA; the formulation method: 0.1% vitamin C was used to formulate a 1 mg/ml solution.
Test positive drugs: haloperidol, clozapine, risperidone, olanzapine, aripiprazole, ziprasidone, quetiapine.
Tween 80, with the concentration of 10%.
Mice with qualified body weight were selected, and randomly divided into blank group, model group, positive control group (risperidone group) and drug group. […] 1 h after the administration, 0.1% concentration of ascorbic acid was intraperitoneally injected to the blank group at 0.1 ml/10 g; and the model group, the positive control group (30 min) and the drug group were intraperitoneally injected the MK-801 solution at 0.1 mg/kg. Subsequently, the spontaneous activities of the mice of each group in 90 min were measured.

[7] = test system: mice of Kunming breed; test: Apomorphine induced clambering assay of mice; type: in vivo; settings: for ED50: Mus musculus, read-out: Apomorphine induced clambering (ED50, po, mg/kg)
Description: Healthy mice of Kunming breed (KM) (male, with body weight of 18-22 g) were provided by Qinglongshan Animal Cultivation Center, Nanjing.
Apomorphine provided by Sigma Company was dissolved in 0.9% NaCl (containing 0.1% vitamin C) before use, and was freshly formulated before use.
Vitamin C, F20061113, was provided by Sinopharm Chemical Reagent Co. Ltd.
Sodium chloride injection, H32026305, was provided by Xuzhou No. 5 Pharmaceutical Factory Co. Ltd.
Instruments: self-made clambering cage, chronograph.
Procedures: apomorphine induced clambering assay of mice
After 5 min of adaptation, the behavior of the mice at 10-11, 20-21, and 30-31 min after the injection of apomorphine were observed and scored. Scoring criteria: the behavior of 4 paws on the floor was scored as 0; the behavior of 2 forepaws on the cage was scored as 1; and the behavior of 4 paws on the cage was scored as 2.

[8] = Catalepsy assay in mice; settings: both sexes, Kunming, mouse, in vivo, po, bar test at 30, 60, 90 min
Description: Healthy mice of Kunming breed (with half male and half female, (22±2) g) were provided by Qinglongshan Animal Cultivation Center, Nanjing.
Instruments: self-made bar-grabbing apparatus: stainless steel bar in mice box, which was 0.3 cm in diameter and […].
Corresponding solvent double-distilled water was administered intragastrically to the negative control group and the model group, corresponding positive drugs were administered intragastrically to the positive drug groups (a small amount of acetic acid was first added and then double-distilled water was added when dissolving), and corresponding dosages of compounds were administered intragastrically to the compound groups for each dosage, with the volume for intragastric administration as 0.1 ml/10 g. At 30 min, 60 min, 90 min after the intragastric administration, the two forepaws of the mice were gently placed on the bars (which were 20 cm in length, 0.3 cm in diameter, and 5.5 cm above the bench), and the hindpaws of the animals were placed on the bottom of the box. The durations of the mice to maintain the posture with the two forepaws on the bars were recorded, and 30 s of spasticity without moving was considered as the positive response. In the case the forepaws of the mice were not put down persistently, the observation was terminated at 60 s. The numbers of animals with positive response in each of the compound dosage groups were counted.

[9] = in vivo; settings: both sexes, mouse, in vivo, po; single intragastric administration in mice; read-out: LD50 (po, mg/kg)
[10] = target: 5HT2A receptor (Rattus norvegicus, UniProt P14842); test: 5HT2A receptor binding assay ([3H]-Ketanserin, rat striatum membrane); settings: for inhibition at 10 µM: read-out: 5HT2A Inhibition rate (%)
Sequence of 5HT2A receptor (P14842 whole entry): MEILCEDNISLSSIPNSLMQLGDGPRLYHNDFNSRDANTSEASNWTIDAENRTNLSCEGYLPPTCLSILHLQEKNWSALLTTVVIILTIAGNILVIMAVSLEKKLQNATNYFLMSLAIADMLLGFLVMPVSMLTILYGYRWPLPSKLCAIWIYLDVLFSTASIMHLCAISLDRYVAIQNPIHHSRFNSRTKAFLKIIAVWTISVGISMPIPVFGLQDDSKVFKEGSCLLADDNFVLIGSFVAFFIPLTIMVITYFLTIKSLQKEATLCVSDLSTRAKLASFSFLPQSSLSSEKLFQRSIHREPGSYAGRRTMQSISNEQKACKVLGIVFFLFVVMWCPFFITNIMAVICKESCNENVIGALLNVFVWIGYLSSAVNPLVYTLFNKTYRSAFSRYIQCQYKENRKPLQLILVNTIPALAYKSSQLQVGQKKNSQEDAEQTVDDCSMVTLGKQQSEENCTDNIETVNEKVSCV

[11] = target: Histamine H1 receptor (Rattus norvegicus, UniProt P31390); test: Histamine H1 receptor binding assay (3H-pyrilamine, rat cerebellum membrane); settings: for inhibition at 10 µM: read-out: H1 Inhibition rate (%)
Sequence of Histamine H1 receptor (P31390 whole entry): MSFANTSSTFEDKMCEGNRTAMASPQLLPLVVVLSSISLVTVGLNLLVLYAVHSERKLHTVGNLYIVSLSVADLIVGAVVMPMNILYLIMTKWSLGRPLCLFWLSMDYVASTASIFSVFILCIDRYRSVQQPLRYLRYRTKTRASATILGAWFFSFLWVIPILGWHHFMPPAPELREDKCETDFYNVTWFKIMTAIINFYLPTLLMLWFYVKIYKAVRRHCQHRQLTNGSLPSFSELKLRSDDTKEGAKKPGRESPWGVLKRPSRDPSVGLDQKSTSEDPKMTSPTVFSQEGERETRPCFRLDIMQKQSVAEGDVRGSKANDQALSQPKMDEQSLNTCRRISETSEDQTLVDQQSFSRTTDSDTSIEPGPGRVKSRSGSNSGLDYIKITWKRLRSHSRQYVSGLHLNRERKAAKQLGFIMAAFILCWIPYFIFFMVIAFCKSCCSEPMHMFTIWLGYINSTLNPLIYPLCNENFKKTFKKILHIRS
Description: The supernatant was discarded to give pellets, and homogenate F was added again to the pellets for washing. Centrifugation was conducted and repeated 3 times.
(2) 100 μL of membrane preparation was added into each reaction tube.

[12] = mice, po, apomorphine 1 mg/kg sc 1 hour after administration

SMILES	D2 Inhibition rate (%) [1]	inhibition at 10 µM [2]	inhibition at 10 µM [3]	inhibition at 10 µM [4]	α1 Inhibition rate (%) [5]	inhibition at 10 µM [10]	inhibition at 10 µM [11]	further results
O=C(CCN1CCC(c2noc3cc(F)ccc23)CC1)c1cc2c3c(c1)CCC(=O)N3CCC2 [Compound 2]	94.33%	93.9%	74.9%	63.9%	68.75%	97.9%	47.9%	ED50 [6]: 0.2 mg/kg; ED50 [7, 12]: 0.11 mg/kg; ED50 [8]: 3.8 mg/kg; LD50 at 7 days [9]: > 2000 mg/kg
O=C1CCc2cc(CCCCN3CCC(c4noc5cc(F)ccc45)CC3)cc3c2N1CC3 [Compound 17]	99.17%	99.1%	96.2%	51.1%	46.62%	99.4%	35.4%	affinity with D2 (in words) ([1]; summary of in vitro assay): high affinities; affinity with 5HT1A (in words) ([2]; summary of in vitro assay): high affinities; affinity with D3 (in words) ([3]; summary of in vitro assay): high affinities; affinity with 5HT2C (in words) ([4]; summary of in vitro assay): low affinities; affinity with α1 (in words) ([5]; summary of in vitro assay): low affinities; affinity with 5HT2A (in words) ([10]; summary of in vitro assay): high affinities; affinity with H1 (in words) ([11]; summary of in vitro assay): low affinities
O=C(CCCCN1CCC(c2noc3cc(F)ccc23)CC1)c1cc2c3c(c1)CCN3C(=O)CC2 [Compound 18]	88.10%	84.3%	98.1%	54.3%	56.48%	87.8%	37.8%	
O=C1CCc2cc(C(O)CCCCN3CCC(c4noc5cc(F)ccc45)CC3)cc3c2N1CC3 (stereo not drawn) [Compound 19]	81.45%	87.1%	91.5%	57.1%	52.47%	81.1%	41.1%	
O=C1CCc2cc(CCCCCN3CCC(c4noc5cc(F)ccc45)CC3)cc3c2N1CC3 [Compound 20]	83.23%	83%	93.2%	53%	68.86%	80.3%	49.3%	
O=C(CCCN1CCC(c2noc3cc(F)ccc23)CC1)c1cc2c3c(c1F)CCN3C(=O)CC2 [Compound 21]	92.01%	93.3%	90.1%	67.9%	46.78%	91.1%	54.3%	
O=C(CCCN1CCC(c2noc3cc(F)ccc23)CC1)c1cc2c3c(c1F)CCC(=O)N3CC2 [Compound 22]	93.12%	91.2%	91.2%	76.3%	53.46%	90.2%	45.2%	
Cc1cc2c(s1)Nc1ccccc1N=C2N1CCN(C)CC1 [olanzapine]								ED50 ([7]; 1 h): 0.11 mg/kg
Cc1nc2n(c(=O)c1CCN1CCC(c3noc4cc(F)ccc34)CC1)CCCC2 [risperidone]								ED50 ([7]; 1 h): 0.015 mg/kg; effect on apomorphine induced clambering symptoms (in words) ([7]; compared with the model group, mice): effectively improve
O=C1Cc2cc(CCN3CCN(c4nsc5ccccc45)CC3)c(Cl)cc2N1 [ziprasidone]								ED50 [6]: 0.56 mg/kg; ED50 [7, 12]: 0.37 mg/kg; LD50 at 7 days [9]: > 2000 mg/kg
